Starred links: 1 amine or outer side, 2 acyl side, 3 side chain; linkers in the order of their positions; H or OH if unused. Non-standard residues stand in square brackets, D forms with d. Residues, ends and D or L forms follow the SMILES beside them. *: point of attachment. CH2(1-naphthyl) = c1ccc2c(C*)cccc2c1; Hyp = O=C(O)[C@@H]1C[C@@H](O)CN1; Suc = O=C(CCC(=O)[*:2])[*:1]; Nva = CCC[C@H](N)C(=O)O; Ac3c = NC1(C(=O)O)CC1
Biological target: NS3 (Hepatitis C virus, UniProt A3EZJ3)
Assay: Inhibitory concentration required against NS3 Protease of Hepatitis C Virus
Set-up: species or system Hepacivirus hominis

NS3, sequence (A3EZJ3 whole entry): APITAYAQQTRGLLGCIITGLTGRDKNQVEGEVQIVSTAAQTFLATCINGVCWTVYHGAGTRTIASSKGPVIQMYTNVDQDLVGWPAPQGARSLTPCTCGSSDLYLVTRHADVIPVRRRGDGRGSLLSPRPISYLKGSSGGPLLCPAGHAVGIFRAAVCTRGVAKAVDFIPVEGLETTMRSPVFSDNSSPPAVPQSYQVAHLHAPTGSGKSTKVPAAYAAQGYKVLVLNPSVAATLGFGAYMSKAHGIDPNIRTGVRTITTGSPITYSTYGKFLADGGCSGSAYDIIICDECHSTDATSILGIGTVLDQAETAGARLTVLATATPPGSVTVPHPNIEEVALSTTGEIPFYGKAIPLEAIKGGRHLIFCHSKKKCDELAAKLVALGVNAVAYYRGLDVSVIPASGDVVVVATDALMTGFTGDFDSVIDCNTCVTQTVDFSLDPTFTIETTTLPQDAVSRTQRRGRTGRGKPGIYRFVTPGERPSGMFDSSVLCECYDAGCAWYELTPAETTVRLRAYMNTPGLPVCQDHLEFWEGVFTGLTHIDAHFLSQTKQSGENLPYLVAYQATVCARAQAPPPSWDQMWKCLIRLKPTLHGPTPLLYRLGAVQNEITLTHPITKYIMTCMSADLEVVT

IC50 [µM] | SMILES
5.5 | CC[C@H](C)[C@H](NC(=O)CCC(=O)O)C(=O)N[C@H](C(=O)N1C[C@H](OCc2cccc3ccccc23)C[C@H]1C(=O)NC1(C(=O)O)CC1)C(C)C (Suc-IV[Hyp](CH2(1-naphthyl))[Ac3c]-OH)
22 | CCC[C@H](NC(=O)[C@@H]1C[C@@H](OCc2cccc3ccccc23)CN1C(=O)[C@@H](NC(=O)[C@@H](NC(=O)CCC(=O)O)[C@@H](C)CC)C(C)C)C(=O)O (Suc-IV[Hyp](CH2(1-naphthyl))[Nva]-OH)
